Data from US20220000841A1, “INHIBITORS OF METALLO-BETA-LACTAMASES” (CENTRE NATIONAL DE LA RECHERCHE SCIENTIFIQUE, priority 2018, published 2022).
Read-outs that look alike come from different tables or passages of the source.

Tests used:
Type in all cases: biochemical
VIM-1 = VIM-1 (Pseudomonas aeruginosa, UniProt A0A0F7KYQ8); test: Enzymatic assay for determination of inhibition constants, reporter substrate method, purified VIM-1; conditions: for Ki: isolated MBL, competitive inhibition model;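 for all read-outs here: initial hydrolysis rates of a reporter β-lactam (imipenem, meropenem, cefotaxime or nitrocefin) followed by absorbance change, purified enzyme at 1–70 nM in 50 mM HEPES pH 7.5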
Method: (§1) The reaction rate was measured as the variation of absorbance observed upon substrate hydrolysis in a UV-Vis spectrophotometer or microplate reader at a wavelength of 300 nm (imipenem, meropenem), 260 nm (cefotaxime) or 482 nm (nitrocefin) in 50 mM HEPES buffer (pH 7.5) and in the presence of a purified MBL enzyme (such as VIM-1, VIM-2, VIM-4, NDM-1 and IMP-1, at a final concentration ranging 1-70 nM).
(§2) The inhibition constants (Ki) were determined on the basis of a model of competitive inhibition by analyzing the dependence of the ratio v0/vi (v0, hydrolysis velocity in the absence of inhibitor; vi, hydrolysis velocity in the presence of inhibitor) as a function of [I] as already described [Docquier J. D., Lamotte-Brasseur J., Galleni M., Amicosante G., Frère J. M., Rossolini G. M. (2003) J. Antimicrob. […] The slope of the plot of v0/vi vs [I], which corresponds to Km^S/(Km^S+[S])Ki (where Km^S is the Km value of the reporter substrate and [S] its concentration in the reaction mixture) and allowed the calculation of the Ki value. Alternatively, a Dixon plot analysis was carried out, by measuring the initial hydrolysis rates in the presence of variable concentrations of inhibitor and substrate.

VIM-2 = VIM-2 (Escherichia coli, UniProt Q5U7L7); test: Enzymatic assay for determination of inhibition constants, reporter substrate method, purified VIM-2;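 note: purified VIM-2 hydrolysing a reporter substrate (imipenem, meropenem, cefotaxime or nitrocefin), reaction rate read as absorbance change, HEPES 50 mM at pH 7.5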
Method: as §1, §2

NDM-1 = NDM-1 (Klebsiella pneumoniae, UniProt C7C422); test: Enzymatic assay for determination of inhibition constants, reporter substrate method, purified NDM-1; conditions: for Ki: isolated MBL, competitive inhibition model;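 for all read-outs here: purified enzyme activity followed as absorbance change from reporter substrate hydrolysis on a UV-Vis spectrophotometer or plate reader, 50 mM HEPES pH 7.5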
Method: as §1, §2

IMP-1 = IMP-1 (Serratia marcescens, UniProt P52699); test: Enzymatic assay for determination of inhibition constants, reporter substrate method, purified IMP-1; conditions: for Ki: isolated MBL, competitive inhibition model; for % inhibition IMP-1: at 200 μM (maximal tested concentration);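 for all read-outs here: purified IMP-1 (1-70 nM) hydrolysing a reporter substrate, initial rates followed as absorbance change at 260, 300 or 482 nm in 50 mM HEPES pH 7.5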
Method: as §1, §2

VIM-4 = VIM-4 (Pseudomonas aeruginosa, UniProt Q8KRJ3); test: Enzymatic assay for determination of inhibition constants, reporter substrate method, purified VIM-4; conditions: at 100 μM (maximal tested concentration);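 note: purified VIM-4 (1-70 nM) in 50 mM HEPES pH 7.5, reporter substrate hydrolysis rate tracked by absorbance change (nitrocefin 482 nm, imipenem or meropenem 300 nm, cefotaxime 260 nm)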
Method: as §1, §2

[1] = isolated MBL, competitive inhibition model, read-out: Ki VIM-2
[2] = at 200 μM (maximal tested concentration)
[3] = at 100 μM (maximal tested concentration)
[4] = as listed in Table 2, read-out: Ki on VIM-2

Sequence of IMP-1 (P52699 19-246, looked up, species assumed): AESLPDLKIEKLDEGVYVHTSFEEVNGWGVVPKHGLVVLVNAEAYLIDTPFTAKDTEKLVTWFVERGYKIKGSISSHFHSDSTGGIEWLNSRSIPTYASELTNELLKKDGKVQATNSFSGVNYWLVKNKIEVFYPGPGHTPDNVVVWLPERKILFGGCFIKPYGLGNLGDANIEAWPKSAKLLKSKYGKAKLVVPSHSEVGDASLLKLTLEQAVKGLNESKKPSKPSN
Sequence of NDM-1 (C7C422 29-270, looked up, species assumed): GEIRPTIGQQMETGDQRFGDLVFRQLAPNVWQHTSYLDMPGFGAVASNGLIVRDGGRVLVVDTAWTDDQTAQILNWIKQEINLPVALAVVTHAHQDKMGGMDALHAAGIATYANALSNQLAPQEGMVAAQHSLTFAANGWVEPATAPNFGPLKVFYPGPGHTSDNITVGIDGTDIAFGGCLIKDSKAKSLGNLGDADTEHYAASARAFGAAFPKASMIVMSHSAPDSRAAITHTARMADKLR

Compound | Ki (VIM-1) [µM] | Ki (VIM-2; [1]) [µM] | Ki (NDM-1) [µM] | Ki (IMP-1) [µM] | % inhibition VIM-2 (VIM-2; [3]) [% at 100 μM] | other results
Oc1ccc(CCn2c(-c3ccccc3)n[nH]c2=S)c(O)c1 [Compound 41, 4-[2-(2,4-Dihydroxyphenyl)ethyl]-5-phenyl-1,2,4-triazole-3-thione] | > 100 | > 100 | 10 to 100 | 10 to 100 |  | 
Sc1nnc(-c2ccccc2)n1Cc1ccccc1 [Compound 9, 4-benzyl-3-phenyl-4,5-dihydro-1H-1,2,4-triazole-5-thione] |  | > 100 | > 100 | 1 to 10 |  | 
O=C(O)c1ccccc1CCn1c(-c2ccc[nH]2)n[nH]c1=S [Compound 57, o-{2-[3-(1H-Pyrrol-2-yl)-5-thioxo-1,4-dihydro-1,2,4-triazol-4-yl]ethyl}benzoic acid] |  |  |  | > 100 |  | % inhibition VIM-2 (VIM-2; [2]): 80% at 200 μM; % inhibition VIM-4 (VIM-4): 65% at 100 μM; % inhibition NDM-1 (NDM-1; [2]): 60% at 200 μM
S=c1[nH]nc(-c2ccccc2)n1CCc1ccc(OCc2ccccc2)cc1 [Compound 54, 4-[4-(Benzyloxy)phenylethyl]-5-phenyl-1,2,4-triazole-3-thione] |  | 10 to 100 | > 100 |  |  | % inhibition IMP-1 (IMP-1): 60% at 200 μM
S=c1[nH]nc(-c2ccccc2)n1CCCc1ccccc1 [Compound 8, 3-phenyl-4-(3-phenylpropyl)-4,5-dihydro-1H-1,2,4-triazole-5-thione] |  | > 100 | > 100 |  |  | % inhibition IMP-1 (IMP-1): 70% at 200 μM
S=c1[nH]nc(-c2ccccc2)n1CCc1ccccc1 [Compound 11, 3-phenyl-4-(2-phenylethyl)-4,5-dihydro-1H-1,2,4-triazole-5-thione] |  | > 100 | > 100 | 1 to 10 |  | % inhibition VIM-1 (VIM-1; [2]): 75% at 200 μM; % inhibition VIM-4 (VIM-4): 75% at 100 μM
O=C(O)C(SCCn1c(-c2ccccc2)n[nH]c1=S)c1ccccc1 (stereo not shown) [Compound 60, Phenyl[2-(3-phenyl-5-thioxo-1,4-dihydro-1,2,4-triazol-4-yl)ethylthio]acetic acid] |  |  | > 100 | > 100 | 96 | 
O=C(O)c1cc(O)ccc1CCn1c(-c2ccccc2)n[nH]c1=S [Compound 53, 5-Hydroxy-2-[2-(3-phenyl-5-thioxo-1,4-dihydro-1,2,4-triazol-4-yl)ethyl]benzoic acid] |  |  | > 100 | > 100 | 90 | 
O=C(O)CC(Cn1c(-c2ccccc2)n[nH]c1=S)c1ccccc1 (stereo not shown) [Compound 46, 3-Phenyl-4-(3-phenyl-5-thioxo-1,4-dihydro-1,2,4-triazol-4-yl)butyric acid] | > 100 | > 100 | > 100 | > 100 |  | 
Cn1cccc1-c1n[nH]c(=S)n1CCc1ccccc1C(=O)O [Compound 44] |  | < 1 | > 100 | > 100 |  | % inhibition VIM-4 (VIM-4): 80% at 100 μM
O=C(O)c1ccccc1CCn1c(-c2ccc3ccccc3n2)n[nH]c1=S [Compound 36, 2-{2-[3-(Quinolin-2-yl)-5-sulfanylidene-4,5-dihydro-1H-1,2,4-triazol-4-yl]ethyl}benzoic acid] |  | > 100 | > 100 | > 100 |  | % inhibition VIM-4 (VIM-4): 85% at 100 μM
O=C(O)c1cccc(Cn2c(-c3ccccc3)n[nH]c2=S)c1 [Compound 52, m-[(3-Phenyl-5-thioxo-1,4-dihydro-1,2,4-triazol-4-yl)methyl]benzoic acid] |  |  | > 100 | > 100 | 84 | 
Oc1ccc(CCn2c(-c3ccccc3)n[nH]c2=S)cc1 [Compound 31, 4-[2-(4-hydroxyphenyl)ethyl]-3-phenyl-4,5-dihydro-1H-1,2,4-triazole-5-thione] | 1 to 10 | 1 to 10 | 10 to 100 | 10 to 100 |  | % inhibition VIM-4 (VIM-4): 70% at 100 μM
O=C(O)CCCn1c(-c2cccc(-c3ccccc3)c2)n[nH]c1=S [Compound 38, 5-(3-Biphenyl)-4-[3-carboxypropanyl]-1,2,4-triazole-3-thione] | > 100 | < 1 | > 100 | > 100 |  | 
O=C(O)c1ccccc1CCn1c(-c2ccc(OCc3ccccc3)cc2)n[nH]c1=S [Compound 40, 5-(4-Benzyloxyphenyl)-4-[2-(2-carboxyphenyl)ethyl]-1,2,4-triazole-3-thione] | > 100 | < 1 | > 100 | > 100 |  | 
O=C(O)c1ccccc1CNn1c(-c2cccc(-c3ccccc3)c2)n[nH]c1=S [Compound 51, o-{[3-(3-Biphenylyl)-5-thioxo-1,4-dihydro-1,2,4-triazol-4-ylamino]methyl}benzoic acid] |  |  | > 100 | > 100 | 75 | 

Compound | Ki (VIM-1) [µM] | Ki (VIM-2; [1]) [µM] | Ki (NDM-1) [µM] | Ki (IMP-1) [µM] | % inhibition VIM-2 (VIM-2; [3]) [% at 100 μM] | other results
Nc1ccc(CCn2c(-c3ccccc3)n[nH]c2=S)c(C(=O)O)c1 [Compound 61, 5-Amino-2-[2-(3-phenyl-5-thioxo-1,4-dihydro-1,2,4-triazol-4-yl)ethyl]benzoic acid] |  |  | > 100 | > 100 | 75 | 
Oc1ccc(CCn2c(-c3ccccc3-c3ccccc3)n[nH]c2=S)c(O)c1 [Compound 43, 5-(2-Biphenyl)-4-[2-(2,4-dihydroxyphenyl)ethyl]-1,2,4-triazole-3-thione] | > 100 | > 100 | 10 to 100 | > 100 |  | 
Cn1cccc1-c1n[nH]c(=S)n1CCCC(=O)O [Compound 48, 4-[3-(1-Methyl-1H-pyrrol-2-yl)-5-thioxo-1,4-dihydro-1,2,4-triazol-4-yl]butyric acid] |  | > 100 | > 100 | > 100 |  | % inhibition VIM-4 (VIM-4): 75% at 100 μM
O=C(O)CCCCCCCn1c(-c2ccccc2)n[nH]c1=S [Compound 59, 8-(3-Phenyl-5-thioxo-1,4-dihydro-1,2,4-triazol-4-yl)octanoic acid] |  |  | > 100 | > 100 | 90 | 
O=C(O)c1ccc(Cn2c(-c3ccccc3)n[nH]c2=S)cc1 [Compound 55, p-[(3-Phenyl-5-thioxo-1,4-dihydro-1,2,4-triazol-4-yl)methyl]benzoic acid] |  |  | > 100 | > 100 |  | % inhibition VIM-2 (VIM-2; [2]): 80% at 200 μM; % inhibition VIM-4 (VIM-4): 80% at 100 μM
O=C(O)CSCCn1c(-c2ccccc2)n[nH]c1=S [Compound 65, [2-(3-Phenyl-5-thioxo-1,4-dihydro-1,2,4-triazol-4-yl)ethylthio]acetic acid] |  |  | > 100 | > 100 | 90 | 
Cc1ccccc1-c1n[nH]c(=S)n1CCc1ccccc1 [Compound 6, 3-(2-methylphenyl)-4-(2-phenylethyl)-4,5-dihydro-1H-1,2,4-triazole-5-thione] |  |  | > 100 |  |  | % inhibition VIM-1 (VIM-1; [2]): 60% at 200 μM; % inhibition VIM-2 (VIM-2; [2]): 60% at 200 μM; % inhibition VIM-4 (VIM-4): 50% at 100 μM; % inhibition IMP-1 (IMP-1): 80% at 200 μM
S=c1[nH]nc(-c2ccccc2)n1CCCSc1ccccc1 [Compound 79, 5-Phenyl-4-[3-(phenylthio)propyl]-2,4-dihydro-1,2,4-triazole-3-thione] |  |  | > 100 | > 100 | 72 | % inhibition VIM-1 (VIM-1; [3]): 82% at 100 μM; % inhibition VIM-4 (VIM-4): 71% at 100 μM
O=C(O)CCCn1c(-c2ccccc2)n[nH]c1=S [Compound 2, 4-(3-phenyl-5-sulfanylidene-4,5-dihydro-1H-1,2,4-triazol-4-yl)butanoic acid] | > 100 | 1 to 10 | > 100 | > 100 |  | Ki (VIM-2; [4]): 1 to 10 µM
COc1ccc(O)c(-c2n[nH]c(=S)n2CCc2ccccc2)c1 [Compound 10, 3-(2-hydroxy-5-methoxyphenyl)-4-(2-phenylethyl)-4,5-dihydro-1H-1,2,4-triazole-5-thione] | 1 to 10 | 1 to 10 | 1 to 10 | 10 to 100 |  | 
COc1ccc(O)c(-c2n[nH]c(=S)n2Cc2ccccc2)c1 [Compound 7, 4-benzyl-3-(2-hydroxy-5-methoxyphenyl)-4,5-dihydro-1H-1,2,4-triazole-5-thione] | < 1 | 1 to 10 | > 100 | > 100 |  | 
O=C(O)c1ccccc1CCn1c(-c2ccc3ncccc3c2)n[nH]c1=S [Compound 56, 2-{2-[3-(Quinolin-6-yl)-5-sulfanylidene-4,5-dihydro-1H-1,2,4-triazol-4-yl]ethyl}benzoic acid] |  |  | > 100 | > 100 | 85 | 
S=c1[nH]nc(-c2ccccc2)n1[C@@H]1C[C@H]1c1ccccc1 [Compound 20, 3-phenyl-4-[(1R,2S)-2-phenylcyclopropyl]-4,5-dihydro-1H-1,2,4-triazole-5-thione] |  |  | 10 to 100 | > 100 |  | % inhibition VIM-2 (VIM-2; [2]): 70% at 200 μM
O=C(O)c1ccccc1CCn1c(-c2ccsc2)n[nH]c1=S [Compound 58, o-{2-[3-(3-Thienyl)-5-thioxo-1,4-dihydro-1,2,4-triazol-4-yl]ethyl}benzoic acid] |  |  | > 100 | > 100 | 85 | 
O=C(O)c1ccccc1CNn1c(-c2ccccc2)n[nH]c1=S [Compound 5, 2-{[(3-phenyl-5-sulfanylidene-4,5-dihydro-1H-1,2,4-triazol-4-yl)amino]methyl}benzoic acid] | > 100 | 1 to 10 | > 100 | > 100 |  | Ki (VIM-2; [4]): 1 to 10 µM
Cc1ccccc1-c1n[nH]c(=S)n1/N=C/c1ccccc1C(=O)O [II, reference compound] |  |  |  |  |  | Ki (VIM-2; [4]): 1 to 10 µM
